This note sets out measurements from US8202909B2, “Method for treating central nervous system disorders” (Sucampo AG, priority 2005, dated 2012).

Marks after values point to notes of the source that are not given here.

In assay [1] the test system is ddY mice. Kind of assay: Persistent time of gasping movements after decapitation in mice, subcutaneous (Example 3). The format is in vivo. The following applies: 300 μg/kg s.c. Here is the method: (§1) Four-week-old male ddY mice were housed in aluminum cages in an animal room controlled for temperature (24±3° C.), relative humidity (55±10%), ventilation rate (˜12 times/hour) and light-dark cycle (fluorescent lighting: 8:00 to 20:00) for at least 7 days. The animals were allowed free access to pellet diet and tap water from water bottles. Healthy animals without abnormalities in general signs were used in this study.
11-deoxy-13,14-dihydro-16,16-difluoro-PGE1 (hereinafter, “Compound C”) was dissolved in a vehicle (physiologic saline containing 0.01% polysorbate 80 and 0.5% ethanol), and was administered subcutaneously to the animals. The control group received an equal amount of the vehicle in the same manner.
(§2) The animals were decapitated at 30 minutes after the administration, and the persistent time of gasping movements was measured.

Assay [2] relates to ddY mice. Put plainly: Persistent time of gasping movements after decapitation in mice, subcutaneous (Example 1). The format is in vivo. The following applies: for Persistent Time of Gasping Movements: decapitated 30 minutes after administration, Mean ± SE, n=10. As to the method: as §1
11-deoxy-13,14-dihydro-15-keto-16,16-difluoro-PGE1 (hereinafter, “Compound A”) was dissolved in a vehicle (physiologic saline containing 0.01% polysorbate 80 and 0.5% ethanol), and was administered subcutaneously to the animals. The control group received an equal amount of the vehicle in the same manner.
as §2

In assay [3] the test system is ddY mice. Kind of assay: Persistent time of gasping movements after decapitation in mice, oral administration (Example 2). The assay is classed as in vivo. The following applies: for Persistent Time of Gasping Movements: fasted mice, decapitated 30 minutes after administration, Mean ± SE, n=10; for Effect on persistent time of gasping movement after decapitation (in words): oral administration at 100, 300 and 1000 μg/kg. As to the method:
Four-week-old male ddY mice were housed in aluminum cages in an animal room controlled for temperature (24±3° C.), relative humidity (55±10%), ventilation rate (˜12 times/hour) and light-dark cycle (fluorescent lighting: 8:00 to 20:00) for at least 7 days. The animals were allowed free access to pellet diet and tap water from water bottles. Healthy animals without abnormalities in general signs were used in this study. The animals were fasted for 20 hours or longer with free access to water before use.
Compound A and 11-deoxy-13,14-dihydro-15-keto-16,16-difluoro-PGE1 methyl ester (hereinafter, “Compound B”) were dissolved in a vehicle (physiologic saline containing 0.01% polysorbate 80 and 0.5% ethanol), and was administered orally to the animals. The control group received an equal amount of the vehicle in the same manner.
as §2

Another assay has as its system Crj: CD (SD) male rats. Put plainly: Cerebral infarct volume after transient focal cerebral ischemia (MCA occlusion-reperfusion) in rats. The assay is classed as in vivo. Conditions: for Infarct volume: brain removed 24 hours after MCA occlusion, mean±S.E., n=10. As to the method: Seven-week-old Crj: CD (SD) male rats were housed in polymethylpentene cages in an animal room controlled for room temperature (22-26° C.), relative humidity (47-60%), ventilation rate (10-20 times/hour) and light-dark cycle (lighting: 7:00 to 19:00) for at least 6 days. The animals were allowed free access to pellet diet and water from water bottles. Animals judged to be in good health were used in this study.
Rats were anesthetized by inhalation of a gas mixture of 2% isoflurane and N2O:O2 (=7:3), stabilized in the supine position, and maintained in the anesthetized state by inhalation of the above gas mixture. The animals were monitored for rectal temperature using a temperature probe during the period of the surgical operation. When a fall in body temperature was observed, an incandescent lamp was used to maintain the temperature at around 37° C. The right common carotid artery, external carotid artery, and internal carotid artery were exposed for occluding the middle cerebral artery (hereafter, MCA). The right common carotid artery and the external carotid artery were ligatured using sutures (5-0), and a 19 mm-long segment of No. 4-0 nylon suture which were precoated with silicone was inserted into the MCA through the bifurcation of the external and internal carotid arteries to occlude the MCA. At 2 hours after the MCA occlusion, the suture was removed and the blood flow in the MCA was restored.
Compound A was dissolved in a vehicle (physiological saline containing 1% polysorbate 80), and was administered intravenously to the animals at a volume of 2 mL/kg immediately after the MCA occlusion-reperfusion and 30 minutes after the MCA occlusion-reperfusion. The control group received an equal volume of the vehicle in the same manner.
At 24 hours after MCA occlusion, the animals were decapitated and the brains were immediately isolated. […] Graphic analysis (Adobe Photoshop™, version 3.0 J; Adobe Systems Incorporated, Color Count 0.3b; K&M Software Corporation) was applied to the photographs, and the infarct area was measured. […]

Assay [4] concerns Alzheimer's disease model animals. Put plainly: Morris water maze test in Alzheimer's disease model animals (bilateral ibotenic acid lesions of basal ganglia). The format is in vivo, rats. As to the method:
Alzheimer's disease model animals were prepared by bilateral ibotenic acid lesions of basal ganglia in rats. Briefly, rats were anesthetized with pentobarbital sodium and placed in a small animal stereotaxic apparatus. Bilateral infusions of 5 μg/0.5 μL of ibotenic acid into the basal ganglia were made at a rate of 0.1 μL/min via a syringe pump and a stainless steel cannula (outer diameter: 0.5 mm). Stereotaxic coordinates were as follows: −0.8 mm posterior from bregma, 2.6 mm lateral (both sides) from midline, and 7.4 mm depth from the bone surface. Animals in sham group received only anesthesia. Animals were then housed with free access to food and water for the rest of the study.
Compound A was orally administered for 14 days after surgery to the model animals. Control group received the same amount of the vehicle.
Morris water maze test was performed to evaluate the effect of test compound. The water maze was a circular pool (painted gray, 1.48 m in diameter, 0.33 m high). The pool contained water that was maintained at a temperature of 17-18° C. During testing in the water maze, a platform, 12 cm in diameter, was located 2 cm below the water in one of four locations (zone 4) in the pool, approximately 38 cm from the sidewall. A light bulb was placed around the pool as a cue external to the maze. The animals received 2 trials per day from 10 days after the initiation of the administration with Compound A or the vehicle. The rats were trained to locate the hidden escape platform, which remained in a fixed location throughout testing. Trials lasted a maximum of 90 sec. The latency to find the submerged platform was recorded and used as a measure of acquisition of the task. The animals were tested in this way for 4 days (total 8 trials), and then they received a probe trial on the 5th day. […] The time the rat spent searching for the platform in the training quadrant (zone 4): i.e., the previous location of the platform was recorded and used as an index of memory.

The test system of assay [5] is Human vascular endothelial cell cultures. Kind of assay: Recovery of transendothelial electrical resistance (TEER) after oxygen deprivation. The format is cell-based. The following applies: 5 nM with 0.1% DMSO, after 30 minutes oxygen deprivation in nitrogen atmosphere; FIG. 1. Here is the method: FIG. 1 is a graph showing the effect of Compound A on Recovery of Transendothelial Electrical Resistance (TEER). Human vascular endothelial cell cultures were brought to confluence, as measured by transendothelial electrical resistance (TEER). The cell cultures were then deprived of oxygen for 30 minutes by incubation in a nitrogen atmosphere. The cells were then either treated with 0.1% DMSO or with 5 nM Compound A with 0.1% DMSO. Statistical significance is indicated at all data points after drug treatment. N=10 cells.
Human vascular endothelial cell cultures were brought to confluence, as measured by transendothelial electrical resistance (TEER). The cell cultures were then deprived of oxygen for 30 minutes by incubation in a nitrogen atmosphere. The cells were then either treated with 0.1% DMSO or with 5 nM Compound A with 0.1% DMSO final.

Assay [6] deals with Human microvascular endothelial cells (adult) (HMVEC-AD). Kind of assay: Recovery of ATP level after nitrogen atmosphere (luciferin-luciferase assay). Conditions: 5 nM, after 30 minutes nitrogen atmosphere, compared to cells treated with 0.01% DMSO alone; FIG. 2. The format is cell-based. Here is the method:
FIG. 2 is a graph showing the effect of Compound A on Recovery of ATP Level. Human microvascular endothelial cells (adult) (HMVEC-AD) were grown to confluence. The cells were then treated for 30 minutes with a nitrogen atmosphere and returned to normal oxygen. ATP levels were monitored at the indicated time points using a luciferin-luciferase assay system (ATPlite, Perkin Elmer). ATP levels are given as relative luminescence. N=6 cells at each time point.
Human microvascular endothelial cells (adult) (HMVEC-AD) were grown to confluence. The cells were then treated for 30 minutes with a nitrogen atmosphere and returned to normal oxygen. ATP levels were monitored at the indicated time points using a luciferin-luciferase assay system (ATPlite, Perkin Elmer).

Consider `CCCCC(F)(F)C(O)CCC1CCC(=O)C1CCCCCCC(=O)O` (centres unmarked) [Compound C, 11-deoxy-13,14-dihydro-16,16-difluoro-PGE1], for which the “Effect on persistent time of gasping movement after decapitation (in words)” value (“Effect on persistent time” for short) in the assay with ddY mice [1] is on record as “significant prolongation”. Further, the “Persistent Time of Gasping Movements” value in the assay on ddY mice [1] (decapitated 30 minutes after administration, Mean ± SE, n=10, p<0.01 vs vehicle) was 25.2 ± 0.7 s.

As to `CCCCC(F)(F)C(=O)CCC1CCC(=O)C1CCCCCCC(=O)O` (centres unmarked) [Compound A, 11-deoxy-13,14-dihydro-15-keto-16,16-difluoro-PGE1], the “Persistent Time of Gasping Movements” value with ddY mice [2] (10 μg/kg s.c.) is 21.7 ± 0.6 s; in the assay with ddY mice [2] (30 μg/kg s.c.), 22.0 ± 0.4 s; in the assay on ddY mice [2] (100 μg/kg s.c., p<0.05 vs vehicle) it was 23.2 ± 0.8 s; in the assay with ddY mice [2] (300 μg/kg s.c., p<0.01 vs vehicle), 23.6 ± 0.6 s; in the assay on ddY mice [3] (100 μg/kg p.o.), 18.8 ± 0.5 s; in the assay on ddY mice [3] (300 μg/kg p.o.) it was 18.9 ± 0.3 s. Also, the “Persistent Time of Gasping Movements” value in the assay on ddY mice [3] (1000 μg/kg p.o.) stood at 20.2 ± 0.6 s. Also, the “Effect on persistent time” value in the assay with ddY mice [2] (10, 30, 100 and 300 μg/kg s.c.) was “dose-dependent prolongation”; in the assay on ddY mice [3], “dose-dependent prolongation”. Further, the Infarct volume is 208.2 ± 22.2* mm^3 in the assay with Crj: CD (SD) male rats (0.05 mg/kg i.v. immediately after and 30 minutes after MCA occlusion-reperfusion, P<0.05); 172.9 ± 25.5** mm^3 in the assay on Crj: CD (SD) male rats (0.5 mg/kg i.v. immediately after and 30 minutes after MCA occlusion-reperfusion, P<0.01). The “Effect on cerebral infarct volume after ischemia (in words)” value in the assay with Crj: CD (SD) male rats (0.05 and 0.5 mg/kg i.v., compared with vehicle group) is “significantly reduced the cerebral infarct volume”. The “Goal latency (8th trial)” value in assay [4] (1 mg/kg orally for 14 days after surgery, mean ± SE, n=10, p<0.01 vs vehicle) came out at 51.5 ± 13.7 s. For the same molecule, in assay [4] (1 mg/kg orally for 14 days after surgery, probe trial 90 sec, mean ± SE, n=10, p<0.05 vs vehicle), the “Time spent in zone 4” value is 20.8 ± 3.6 s. Besides, the “Effect on deficit in learning and memory (in words)” value in assay [4] (orally for 14 days after surgery, Morris water maze) is “significant reversals of the deficit in learning and memory”. The “Recovery of TEER (in words)” value in assay [5] is “immediate recovery of TEER”. In addition, in assay [6], the “Recovery of ATP level (in words)” value is on record as “ATP levels returned more quickly”.

Regarding `CCCCC(F)(F)C(=O)CCC1CCC(=O)C1CCCCCCC(=O)OC` (centres unmarked) [Compound B, 11-deoxy-13,14-dihydro-15-keto-16,16-difluoro-PGE1 methyl ester], the “Persistent Time of Gasping Movements” value in the assay with ddY mice [3] (100 μg/kg p.o.) was 17.6 ± 0.5 s; with ddY mice [3] (300 μg/kg p.o.), 19.1 ± 0.5 s; with ddY mice [3] (1000 μg/kg p.o.), 19.1 ± 0.4 s. Further, the “Effect on persistent time” value in the assay with ddY mice [3] is “dose-dependent prolongation”.
